Source: PubChem BioAssay AID260 (DTP/NCI, 2004)
Values joined by “and” are separate entries in the source; they are usually repeats but may differ in a detail not shown here. Equal entries are not always repeated. Inconclusive results and toxic doses are left out.

Tested on: CD2F1 mice, intracerebral L1210 leukemia, survival T/C
Assay: NCI In Vivo Anticancer Drug Screen. Data for tumor model L1210 Leukemia (intracerebral) in CD2F1 (CDF1) mice
Conditions: higher = longer survival
Method: The antitumor activity of compounds was measured in mice bearing transplantable tumors. Survival or tumor size were measured and the results are expressed as the measurement made in the treated group (T) divided by the measurement made in the vehicle treated control group (C). The tumor model used in this assay is L1210 Leukemia (intracerebral) in CD2F1 (CDF1) mice

COC(=O)c1cccc(N=NN(C)C)c1
T/C (endpoint: median survival time, dose: 8.0 mg/kg/injection, schedule: Q01DX005 (ip), vehicle: saline + alcohol): 104 % of control
T/C (endpoint: median survival time, dose: 16.0 mg/kg/injection, schedule: Q01DX005 (ip), vehicle: saline + alcohol): 100 % of control
T/C (endpoint: median survival time, dose: 32.0 mg/kg/injection, schedule: Q01DX005 (ip), vehicle: saline + alcohol): 104 % of control
T/C (endpoint: median survival time, dose: 64.0 mg/kg/injection, schedule: Q01DX005 (ip), vehicle: saline + alcohol): 113 % of control
T/C (endpoint: median survival time, dose: 128.0 mg/kg/injection, schedule: Q01DX005 (ip), vehicle: saline + alcohol): 117 % of control

C#C[C@]1(O)CC[C@H]2[C@@H]3CCc4cc(O)ccc4[C@H]3CC[C@@]21C
T/C (endpoint: median survival time, dose: 8.0 mg/kg/injection, schedule: Q01DX009 (ip), vehicle: saline with Tween-80): 100 % of control and 104 % of control
T/C (endpoint: median survival time, dose: 16.0 mg/kg/injection, schedule: Q01DX009 (ip), vehicle: saline with Tween-80): 96 % of control and 98 % of control
T/C (endpoint: median survival time, dose: 32.0 mg/kg/injection, schedule: Q01DX009 (ip), vehicle: saline with Tween-80): 97 % of control and 101 % of control
T/C (endpoint: median survival time, dose: 64.0 mg/kg/injection, schedule: Q01DX009 (ip), vehicle: saline with Tween-80): 100 % of control and 101 % of control
T/C (endpoint: median survival time, dose: 128.0 mg/kg/injection, schedule: Q01DX009 (ip), vehicle: saline with Tween-80): 93 % of control and 101 % of control
T/C (endpoint: median survival time, dose: 256.0 mg/kg/injection, schedule: Q01DX009 (ip), vehicle: saline with Tween-80): 86 % of control and 101 % of control

N[C@H](C(=O)O)[C@@H]1CC(Cl)=NO1
T/C (endpoint: mean survival time, dose: 16.0 mg/kg/injection, schedule: Q01DX009 (ip), vehicle: saline): 124 % of control
T/C (endpoint: mean survival time, dose: 32.0 mg/kg/injection, schedule: Q01DX009 (ip), vehicle: saline): 101 % of control

CC[n+]1c(-c2ccccc2)c2cc(N)ccc2c2ccc(N)cc21
T/C (endpoint: median survival time, dose: 12.0 mg/kg/injection, schedule: Q01DX005 (ip), vehicle: saline): 100 % of control
T/C (endpoint: median survival time, dose: 24.0 mg/kg/injection, schedule: Q01DX005 (ip), vehicle: saline): 104 % of control

CS(=O)(=O)CS(=O)(=O)OCCCl
T/C (endpoint: median survival time, dose: 6.25 mg/kg/injection, schedule: Q01DX009 (ip), vehicle: saline): 104 % of control
T/C (endpoint: median survival time, dose: 12.5 mg/kg/injection, schedule: Q01DX009 (ip), vehicle: saline): 112 % of control
T/C (endpoint: median survival time, dose: 50.0 mg/kg/injection, schedule: Q01DX009 (ip), vehicle: saline): 209 % of control

C=CCN(C)N=Nc1ccc(C(N)=O)cc1
T/C (endpoint: mean survival time, dose: 25.0 mg/kg/injection, schedule: Q01DX009 (ip), vehicle: Klucel (hydroxypropylcellulose) (HPC)): 98 % of control
T/C (endpoint: mean survival time, dose: 50.0 mg/kg/injection, schedule: Q01DX009 (ip), vehicle: Klucel (hydroxypropylcellulose) (HPC)): 108 % of control
T/C (endpoint: mean survival time, dose: 100.0 mg/kg/injection, schedule: Q01DX009 (ip), vehicle: Klucel (hydroxypropylcellulose) (HPC)): 118 % of control
T/C (endpoint: mean survival time, dose: 200.0 mg/kg/injection, schedule: Q01DX009 (ip), vehicle: Klucel (hydroxypropylcellulose) (HPC)): 118 % of control

CCCCCN(C)/N=N/c1nc[nH]c1C(N)=O
T/C (endpoint: median survival time, dose: 16.0 mg/kg/injection, schedule: Q01DX005 (ip), vehicle: saline with Tween-80): 112 % of control
T/C (endpoint: median survival time, dose: 32.0 mg/kg/injection, schedule: Q01DX005 (ip), vehicle: saline with Tween-80): 122 % of control
T/C (endpoint: median survival time, dose: 256.0 mg/kg/injection, schedule: Q01DX005 (ip), vehicle: saline with Tween-80): 92 % of control

CN(N=O)C(=O)N[C@@H](C=O)[C@@H](O)[C@H](O)[C@H](O)CO
T/C (endpoint: mean survival time, dose: 50.0 mg/kg/injection, schedule: Q01DX005 (ip), vehicle: saline): 100 % of control
T/C (endpoint: mean survival time, dose: 50.0 mg/kg/injection, schedule: Q01DX009 (ip), vehicle: saline): 102 % of control
T/C (endpoint: mean survival time, dose: 100.0 mg/kg/injection, schedule: Q01DX005 (ip), vehicle: saline): 102 % of control
T/C (endpoint: mean survival time, dose: 100.0 mg/kg/injection, schedule: Q01DX009 (ip), vehicle: saline): 100 % of control
T/C (endpoint: mean survival time, dose: 200.0 mg/kg/injection, schedule: Q01DX005 (ip), vehicle: saline): 104 % of control
T/C (endpoint: mean survival time, dose: 200.0 mg/kg/injection, schedule: Q01DX009 (ip), vehicle: saline): 100 % of control
T/C (endpoint: mean survival time, dose: 400.0 mg/kg/injection, schedule: Q01DX009 (ip), vehicle: saline): 95 % of control
T/C (endpoint: median survival time, dose: 75.0 mg/kg/injection, schedule: Q01DX001 (ip), vehicle: DMSO): 102 % of control
T/C (endpoint: median survival time, dose: 75.0 mg/kg/injection, schedule: Q01DX001 (ip), vehicle: other): 103 % of control
T/C (endpoint: median survival time, dose: 75.0 mg/kg/injection, schedule: Q01DX001 (oral), vehicle: saline): 109 % of control
T/C (endpoint: median survival time, dose: 150.0 mg/kg/injection, schedule: Q01DX001 (ip), vehicle: DMSO): 114 % of control
T/C (endpoint: median survival time, dose: 150.0 mg/kg/injection, schedule: Q01DX001 (ip), vehicle: other): 107 % of control
T/C (endpoint: median survival time, dose: 150.0 mg/kg/injection, schedule: Q01DX001 (oral), vehicle: saline): 100 % of control
T/C (endpoint: median survival time, dose: 300.0 mg/kg/injection, schedule: Q01DX001 (ip), vehicle: DMSO): 114 % of control
T/C (endpoint: median survival time, dose: 300.0 mg/kg/injection, schedule: Q01DX001 (ip), vehicle: other): 109 % of control
T/C (endpoint: median survival time, dose: 300.0 mg/kg/injection, schedule: Q01DX001 (oral), vehicle: saline): 113 % of control
T/C (endpoint: median survival time, dose: 500.0 mg/kg/injection, schedule: Q01DX001 (ip), vehicle: DMSO): 112 % of control
T/C (endpoint: median survival time, dose: 500.0 mg/kg/injection, schedule: Q01DX001 (ip), vehicle: other): 103 % of control
T/C (endpoint: median survival time, dose: 500.0 mg/kg/injection, schedule: Q01DX001 (oral), vehicle: saline): 100 % of control

O=C1C(NCCO)=C(N2CC2)C(=O)C(NCCO)=C1N1CC1
T/C (endpoint: mean survival time, dose: 0.37 mg/kg/injection, schedule: Q01DX009 (ip), vehicle: saline): 111 % of control
T/C (endpoint: mean survival time, dose: 1.5 mg/kg/injection, schedule: Q01DX009 (ip), vehicle: saline): 119 % of control and 122 % of control

CC(C)=CCC1=C(O)c2ccccc2C(=O)C1=O
T/C (endpoint: median survival time, dose: 32.0 mg/kg/injection, schedule: Q01DX005 (ip), vehicle: Klucel (hydroxypropylcellulose) (HPC)): 96 % of control and 100 % of control
T/C (endpoint: median survival time, dose: 64.0 mg/kg/injection, schedule: Q01DX005 (ip), vehicle: Klucel (hydroxypropylcellulose) (HPC)): 97 % of control and 102 % of control
T/C (endpoint: median survival time, dose: 128.0 mg/kg/injection, schedule: Q01DX005 (ip), vehicle: Klucel (hydroxypropylcellulose) (HPC)): 92 % of control and 93 % of control
T/C (endpoint: median survival time, dose: 256.0 mg/kg/injection, schedule: Q01DX005 (ip), vehicle: Klucel (hydroxypropylcellulose) (HPC)): 96 % of control and 105 % of control

c1ccc([C@H]2CN3CCSC3=N2)cc1
T/C (endpoint: median survival time, dose: 5.0 mg/kg/injection, schedule: Q01DX009 (ip), vehicle: saline): 100 % of control and 101 % of control and 103 % of control
T/C (endpoint: median survival time, dose: 10.0 mg/kg/injection, schedule: Q01DX005 (ip), vehicle: saline): 101 % of control
T/C (endpoint: median survival time, dose: 10.0 mg/kg/injection, schedule: Q01DX009 (ip), vehicle: saline): 124 % of control and 100 % of control and 102 % of control
T/C (endpoint: median survival time, dose: 20.0 mg/kg/injection, schedule: Q01DX005 (ip), vehicle: saline): 98 % of control and 116 % of control
T/C (endpoint: median survival time, dose: 20.0 mg/kg/injection, schedule: Q01DX009 (ip), vehicle: saline): 97 % of control (2×) and 104 % of control
T/C (endpoint: median survival time, dose: 40.0 mg/kg/injection, schedule: Q01DX005 (ip), vehicle: saline): 98 % of control and 113 % of control

COC1OC(CO)C(O)C(NC(=O)N(C)N=O)C1O (configuration not stated)
T/C (endpoint: median survival time, dose: 0.5 mg/kg/injection, schedule: Q01DX009 (ip), vehicle: saline): 102 % of control
T/C (endpoint: median survival time, dose: 1.0 mg/kg/injection, schedule: Q01DX009 (ip), vehicle: saline): 107 % of control
T/C (endpoint: median survival time, dose: 2.0 mg/kg/injection, schedule: Q01DX009 (ip), vehicle: saline): 111 % of control
T/C (endpoint: median survival time, dose: 4.0 mg/kg/injection, schedule: Q01DX009 (ip), vehicle: saline): 111 % of control
T/C (endpoint: median survival time, dose: 8.0 mg/kg/injection, schedule: Q01DX009 (ip), vehicle: saline): 116 % of control
T/C (endpoint: median survival time, dose: 16.0 mg/kg/injection, schedule: Q01DX009 (ip), vehicle: saline): 102 % of control

CN(C)N=Nc1ccc(Cl)cc1
T/C (endpoint: mean survival time, dose: 10.0 mg/kg/injection, schedule: Q01DX007 (ip), vehicle: DMSO): 90 % of control
T/C (endpoint: mean survival time, dose: 20.0 mg/kg/injection, schedule: Q01DX007 (ip), vehicle: DMSO): 91 % of control
T/C (endpoint: mean survival time, dose: 40.0 mg/kg/injection, schedule: Q01DX007 (ip), vehicle: DMSO): 108 % of control
T/C (endpoint: mean survival time, dose: 80.0 mg/kg/injection, schedule: Q01DX007 (ip), vehicle: DMSO): 87 % of control
T/C (endpoint: mean survival time, dose: 120.0 mg/kg/injection, schedule: Q01DX007 (ip), vehicle: DMSO): 91 % of control
